{"source": "paper PMC10692721", "about": "“Drug discovery for heart failure targeting myosin-binding protein C” (The Journal of Biological Chemistry, 2023)", "key": {"[1]": {"system": "TMR-cC0-C2 (C0-C2 fragment of human cMyBP-C)", "experiment": "FLT-TMR concentration-response assay (FLT of TMR on cC0-C2, no actin)", "type": "binding", "conditions": "60 μM compound", "summary_of_the_method": "(§1)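 Hits tested at eight concentrations (0.5–100 μM) and read on a high-throughput fluorescence lifetime plate reader. Hill fits applied only under certain conditions.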"}, "[2]": {"system": "PKA-phosphorylated TMR-cC0-C2 (cC0-C2#P)", "experiment": "FLT-TMR concentration-response assay, PKA-phosphorylated cC0-C2", "type": "binding, human", "conditions": "60 μM compound", "summary_of_the_method": "as §1"}, "[3]": {"system": "TMR-fC1-C2 (C1-C2 of fast skeletal MyBP-C)", "experiment": "FLT-TMR concentration-response assay, fC1-C2", "type": "binding", "conditions": "60 μM compound", "summary_of_the_method": "as §1"}, "[4]": {"system": "FMAL-actin/TMR-cC0-C2 interaction", "experiment": "FLT-FRET concentration-response assay, FMAL-actin plus TMR-cC0-C2", "type": "binding, human", "conditions": "unphosphorylated cC0-C2", "summary_of_the_method": "as §1"}, "[5]": {"system": "FMAL-actin plus TMR-cC0-C2", "experiment": "Selleck library HTS, 473 nm excitation (FLT of FMAL-actin with TMR-cC0-C2, FLT-FRET)", "type": "binding, human", "summary_of_the_method": "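Donor fluorescence lifetime was then recorded. Waveforms were fit to a single exponential, and ΔFLT was obtained after a moving-median plate-gradient correction (half-row window), rescaled by the median DMSO lifetime.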"}, "[6]": {"system": "TMR-cC0-C2", "experiment": "Selleck library HTS, 532 nm excitation (FLT of TMR-cC0-C2 in presence of FMAL-actin)", "type": "binding, human"}, "[7]": {"system": "bovine cardiac (left ventricular) myofibrils", "experiment": "Cardiac myofibril ATPase assay", "type": "biochemical", "conditions": "50 μM compound; for effect on cardiac MF ATPase activity (in words): pCa 8 to pCa 4", "description": "Rabbit psoas and bovine cardiac myofibrils were prepared as described in our previous study ([17]). An enzyme-coupled, NADH-linked ATPase assay was used to measure skeletal and cardiac myofibril ATPase activity in 96-well microplates at 23 °C. Ionic strength was maintained below 0.2 M, so myofilaments remained insoluble and stable ([32]). To achieve optimal enzymatic activities, buffers for skeletal and cardiac myofibrils differed slightly ([33], [34]): skeletal in 50 mM MOPS, 100 mM KCl, 5 mM MgCl2, 1 mM EGTA, pH 7.0; cardiac in 20 mM MOPS, 35 mM NaCl, 5 mM MgCl2, 1 mM EGTA, pH 7.0. Each well in the microplate contained an assay mix of 0.84 mM phosphoenolpyruvate, 0.17 mM NADH, 10 U/vol pyruvate kinase, 20 U/vol lactate dehydrogenase. The concentration of free Ca^2+ was controlled by EGTA buffering ([35]). Myofibrils were dispensed in microplates with a multichannel pipette and were incubated with assay mix plus compound of interest for 20 min at 23 °C. The concentration of myofibrils used was 0.01 mg/ml for skeletal and 0.05 mg/ml for cardiac myofibrils. The assay was started upon the addition of ATP, at a final concentration of 2.1 mM (total volume to 200 μl), and absorbance was recorded at 340 nm in a SpectraMax Plus microplate spectrophotometer from Molecular Devices. The steady-state myofibrillar ATPase rate was measured from NADH oxidation, measured as the rate of decrease in absorption at 340 nm for 30 min, with absorption data collected every 15 s. All data and statistical analysis of steady-state kinetics were conducted with the OriginPro program. The results were fitted with the Hill equation:(6) […] is the ATPase rate and n is the Hill coefficient. ATPase activity is reported on the μmol ATP/mg protein/min scale. Average data are presented as mean ± SD. Sample means are derived from three different myofibril preps (N = 3), each done in duplicate (n = 6). The effects of compounds on ATPase activity of myofibrils were determined in the presence of 50 μM compound, across a 12-point pCa range from 4.0 (activation) to 8.0 (relaxation). The calcium sensitivity (pCa50) was determined by fitting the curves to the Hill equation. […] The normalized ATPase activity of the selected compounds can be found in Figure 6."}, "[8]": {"system": "rabbit fast skeletal (psoas) myofibrils", "experiment": "Skeletal myofibril ATPase assay", "type": "biochemical", "conditions": "50 μM compound; for effect on skeletal MF ATPase activity (in words): pCa 8 to pCa 4", "description": "Rabbit psoas and bovine cardiac myofibrils were prepared as described in our previous study ([17]). An enzyme-coupled, NADH-linked ATPase assay was used to measure skeletal and cardiac myofibril ATPase activity in 96-well microplates at 23 °C. Ionic strength was maintained below 0.2 M, so myofilaments remained insoluble and stable ([32]). To achieve optimal enzymatic activities, buffers for skeletal and cardiac myofibrils differed slightly ([33], [34]): skeletal in 50 mM MOPS, 100 mM KCl, 5 mM MgCl2, 1 mM EGTA, pH 7.0; cardiac in 20 mM MOPS, 35 mM NaCl, 5 mM MgCl2, 1 mM EGTA, pH 7.0. Each well in the microplate contained an assay mix of 0.84 mM phosphoenolpyruvate, 0.17 mM NADH, 10 U/vol pyruvate kinase, 20 U/vol lactate dehydrogenase. The concentration of free Ca^2+ was controlled by EGTA buffering ([35]). Myofibrils were dispensed in microplates with a multichannel pipette and were incubated with assay mix plus compound of interest for 20 min at 23 °C. The concentration of myofibrils used was 0.01 mg/ml for skeletal and 0.05 mg/ml for cardiac myofibrils. The assay was started upon the addition of ATP, at a final concentration of 2.1 mM (total volume to 200 μl), and absorbance was recorded at 340 nm in a SpectraMax Plus microplate spectrophotometer from Molecular Devices. The steady-state myofibrillar ATPase rate was measured from NADH oxidation, measured as the rate of decrease in absorption at 340 nm for 30 min, with absorption data collected every 15 s. All data and statistical analysis of steady-state kinetics were conducted with the OriginPro program. The results were fitted with the Hill equation:(6) V=V0+(Vmax/1+10^−n∗^(pCa50−pCa)) where V is the ATPase rate and n is the Hill coefficient.\nATPase activity is reported on the μmol ATP/mg protein/min scale. Average data are presented as mean ± SD. Sample means are derived from three different myofibril preps (N = 3), each done in duplicate (n = 6).\nThe effects of compounds on ATPase activity of myofibrils were determined in the presence of 50 μM compound, across a 12-point pCa range from 4.0 (activation) to 8.0 (relaxation). The calcium sensitivity (pCa50) was determined by fitting the curves to the Hill equation. In all experiments, a 1% DMSO-only control was included. The normalized ATPase activity of the selected compounds can be found in Figure 6."}, "[9]": {"system": "fC1-C2 binding to Alexa Fluor 568-actin", "experiment": "AF568-actin-MyBP-C FLT binding assay (Fig. S1)", "conditions": "Suramin 20 µM, NF023 50 µM, ATA 20 µM"}, "[10]": {"system": "TMR-MyBP-C (cC0-C2, sC1-C2S, sC1-C2L, fC1-C2)", "experiment": "Compound effects on TMR-MyBP-C lifetime (Fig. S2)", "type": "binding", "conditions": "Suramin 20 µM, NF023 50 µM, ATA 20 µM", "text": "For FLT-TMR experiments, the same samples were excited at 532 nm.\nCompound effects on TMR-MyBP-C lifetime. […] All values are the average ± SD. n=5."}, "[11]": {"molecular_target": "actin (Oryctolagus cuniculus) (UniProt P68135)", "experiment": "FLT", "conditions": "cited from earlier work"}, "[12]": {"molecular_target": "actin (Oryctolagus cuniculus) (UniProt P68135)", "experiment": "FLT", "conditions": "cited from earlier work", "remark": "listed apart in the source"}, "[13]": {"molecular_target": "actin (Oryctolagus cuniculus) (UniProt P68135)", "experiment": "cosedimentation", "conditions": "cited from earlier work"}, "[14]": {"molecular_target": "actin (Oryctolagus cuniculus) (UniProt P68135)", "experiment": "cosedimentation", "conditions": "cited from earlier work", "remark": "listed apart in the source"}, "[15]": {"conditions": "robust z-score, hit threshold ±4, 30 μM compound"}}, "note": "Entries after “also recorded” stand apart in the source; their conditions may differ."}
{"compound": "Enoxaparin sodium", "values": [{"measurement": "cC0-C2/cC0-C2#P (ratio of FLT changes)", "setting": "[1]", "result": 0.4}, {"measurement": "cC0-C2 FLT change (% change from DMSO, FLT of TMR-MyBP-C)", "setting": "[1]", "result": 3.1, "unit": "%"}, {"measurement": "cC0-C2#P FLT change (% change from DMSO, FLT of TMR-MyBP-C)", "setting": "[2]", "result": 6.9, "unit": "%"}, {"measurement": "cC0-C2/fC1-C2 (ratio of FLT changes)", "setting": "[3]", "result": 1.1}, {"measurement": "fC1-C2 FLT change (% change from DMSO, FLT of TMR-MyBP-C)", "setting": "[3]", "result": 2.8, "unit": "%"}, {"measurement": "effect on FLT-FRET / binding between FMAL-actin and TMR-cC0-C2 (in words)", "setting": "[4]", "result": "decrease"}, {"measurement": "473-nm Δτ, Repeat 1", "setting": "[5]; initial screen, 30 μM compound", "result": 0.190, "unit": "ns"}, {"measurement": "473-nm Δτ, Repeat 2", "setting": "[5]; initial screen, 30 μM compound", "result": 0.190, "unit": "ns"}, {"measurement": "473-nm z-score (based on avg Δτ)", "setting": "[5]; [15]", "result": 10.68}, {"measurement": "532-nm Δτ, Repeat 1", "setting": "[6]; initial screen, 30 μM compound", "result": -0.023, "unit": "ns"}, {"measurement": "532-nm Δτ, Repeat 2", "setting": "[6]; initial screen, 30 μM compound", "result": -0.033, "unit": "ns"}, {"measurement": "532-nm z-score (based on avg Δτ)", "setting": "[6]; [15]", "result": -1.67}, {"measurement": "effect on Ca^2+-sensitivity of cardiac MF ATPase (in words)", "setting": "[7]", "result": "significant decrease in Ca^2+-sensitivity"}, {"measurement": "effect on cardiac MF ATPase activity (in words)", "setting": "[7]", "result": "reduced at high Ca^2+; also recorded: specific for cardiac myofibril ATPase effects"}, {"measurement": "Ca^2+-sensitivity (pCa50) of cardiac MF ATPase in presence of compound", "setting": "[7]; 5.77 ± 0.03 in the absence of the drug", "result": "5.55 ± 0.03"}, {"measurement": "effect on Ca^2+-sensitivity of skeletal MF ATPase (in words)", "setting": "[8]", "result": "negligible"}, {"measurement": "effect on skeletal MF ATPase activity (in words)", "setting": "[8]", "result": "reduced at high Ca^2+"}]}
{"compound": "O=C(Nc1cccc(C(=O)Nc2ccc(S(=O)(=O)O)c3cc(S(=O)(=O)O)cc(S(=O)(=O)O)c23)c1)Nc1cccc(C(=O)Nc2ccc(S(=O)(=O)O)c3cc(S(=O)(=O)O)cc(S(=O)(=O)O)c23)c1", "note": "[NF023]", "values": [{"measurement": "effect on Ca^2+-sensitivity of cardiac MF ATPase (in words)", "setting": "[7]", "result": "affected"}, {"measurement": "effect on cardiac MF ATPase activity (in words)", "setting": "[7]", "result": "affected"}, {"measurement": "effect on binding of fC1-C2 (2 µM) to Alexa Fluor 568-actin (1 µM) (in words)", "setting": "[9]", "result": "decreased the binding"}, {"measurement": "effect on FLT of TMR-MyBP-C, all MyBP-C isoforms (in words)", "setting": "[10]", "result": "increased"}]}
{"compound": "O=C(O)C1=CC(=C(c2ccc(O)c(C(=O)O)c2)c2ccc(O)c(C(=O)O)c2)C=CC1=O", "note": "[ATA, Aurintricarboxylic acid]", "values": [{"measurement": "effect on binding of fC1-C2 (2 µM) to Alexa Fluor 568-actin (1 µM) (in words)", "setting": "[9]", "result": "decreased the binding"}, {"measurement": "effect on FLT of TMR-MyBP-C, all MyBP-C isoforms (in words)", "setting": "[10]", "result": "decreased"}]}
{"compound": "cardiac MyBP-C C0-C2 (from UniProt Q14896)", "values": [{"measurement": "Kd", "setting": "[11]", "result": 2500, "unit": "nM"}, {"measurement": "Kd", "setting": "[12]", "result": 19, "unit": "µM"}, {"measurement": "Kd", "setting": "[13]", "result": 4.3, "unit": "µM"}, {"measurement": "Kd", "setting": "[14]", "result": 6.5, "unit": "µM"}]}
{"compound": "Cc1ccc(C(=O)Nc2ccc(S(=O)(=O)O)c3cc(S(=O)(=O)O)cc(S(=O)(=O)O)c23)cc1NC(=O)c1cccc(NC(=O)Nc2cccc(C(=O)Nc3cc(C(=O)Nc4ccc(S(=O)(=O)O)c5cc(S(=O)(=O)O)cc(S(=O)(=O)O)c45)ccc3C)c2)c1", "note": "[Suramin]", "values": [{"measurement": "effect on FLT-FRET / binding between FMAL-actin and TMR-cC0-C2 (in words)", "setting": "[4]", "result": "eliminates binding"}, {"measurement": "effect on Ca^2+-sensitivity of cardiac MF ATPase (in words)", "setting": "[7]", "result": "eliminated the Ca^2+-sensitivity"}, {"measurement": "effect on cardiac MF ATPase activity (in words)", "setting": "[7]", "result": "remained at levels similar to those at low Ca^2+; also recorded: strongest effect"}, {"measurement": "effect on Ca^2+-sensitivity of skeletal MF ATPase (in words)", "setting": "[8]", "result": "eliminated the Ca^2+-sensitivity"}, {"measurement": "effect on skeletal MF ATPase activity (in words)", "setting": "[8]", "result": "showed activation at low Ca^2+; also recorded: strongest effect"}, {"measurement": "effect on binding of fC1-C2 (2 µM) to Alexa Fluor 568-actin (1 µM) (in words)", "setting": "[9]", "result": "decreased the binding"}, {"measurement": "effect on FLT of TMR-MyBP-C, all MyBP-C isoforms (in words)", "setting": "[10]", "result": "increased"}]}
